pIC50: −log10 of the molar value. Some results are limits rather than exact numbers.

T1 sequence (P25103 whole entry): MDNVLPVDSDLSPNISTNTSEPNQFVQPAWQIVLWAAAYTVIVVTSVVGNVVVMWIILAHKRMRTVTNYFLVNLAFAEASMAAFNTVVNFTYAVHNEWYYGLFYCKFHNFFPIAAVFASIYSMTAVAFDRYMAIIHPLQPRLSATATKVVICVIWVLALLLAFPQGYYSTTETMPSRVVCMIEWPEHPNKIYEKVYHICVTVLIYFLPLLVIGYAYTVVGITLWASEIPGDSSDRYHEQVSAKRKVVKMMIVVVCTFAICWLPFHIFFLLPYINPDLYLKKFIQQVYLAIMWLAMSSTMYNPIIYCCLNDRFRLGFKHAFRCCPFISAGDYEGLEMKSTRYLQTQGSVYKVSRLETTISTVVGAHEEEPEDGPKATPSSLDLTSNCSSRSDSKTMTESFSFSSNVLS

The first series concerns the target T1, substance P receptor sites in IM-9 cells (Homo sapiens, UniProt P25103).
T1 construct: endogenous in cells; host or cells: IM-9 cells (human)
The series can be described thus: IM-9 binding assay (inhibition of [3H]SP binding). The settings on record: human IM-9 cells, 0.56 nM [^3H]SP, 120 min at 4° C. On the procedure: The activity of the compounds of the present invention, as substance P antagonists, is determined by their ability to inhibit the binding of substance P at its receptor sites in IM-9 cells employing radioactive ligands. The substance P antagonist activity of the herein described compounds is evaluated by using the standard assay procedure described by D. G. Payan et al., as reported in J. Immunolocy, 133, 3260 (1984). This method essentially involves determining the concentration of the individual compound required to reduce by 50% the amount of radiolabeled substance P ligands at their receptor sites in said isolated cow tissues or IM-9 cells, thereby affording characteristic IC50 values for each compound tested. More specifically, inhibition of [^3H]SP binding to human IM-9 cells by compounds are determined in assay buffer (50 mM Tris-HCl (pH 7.4), 1 mM MnCl2, 0.02% bovine serum albumin, bacitracin (40 μg/ml), leupeptin (4 μg/ml), chymostatin (2 μg/ml) and phosphoramidon (30 μg/ml)). The reaction is initiated by the addition of cells to assay buffer containing 0.56 nM [^3H]SP and various concentrations of compounds (total volume; 0.5 ml) and allowed to incubate for 120 min at 4° C. […] Nonspecific binding is defined as the radioactivity remaining in the presence of 1 μM SP. The filters are placed into tubes and counted using liquid scintillation counter.
Compound `COc1cc2c(cc1CN[C@H]1CCCN[C@H]1c1ccccc1)N(C)C(=O)CC2.Cl.Cl` [Compound 21, (2S,3S)-3-(6-Methoxy-1-methyl-2-oxo-1,2,3,4-tetrahydroquinolin-7-yl)methylamino-2-phenylpiperidine Dihydrochloride] had a pIC50 of more than 10.00.

In a further series the target is T2, Ca^2+ channel (Rattus norvegicus, UniProt P22002).
T2 construct: from tissue; host or cells: rat heart membrane preparation
T2 sequence (P22002 whole entry, other chains not shown): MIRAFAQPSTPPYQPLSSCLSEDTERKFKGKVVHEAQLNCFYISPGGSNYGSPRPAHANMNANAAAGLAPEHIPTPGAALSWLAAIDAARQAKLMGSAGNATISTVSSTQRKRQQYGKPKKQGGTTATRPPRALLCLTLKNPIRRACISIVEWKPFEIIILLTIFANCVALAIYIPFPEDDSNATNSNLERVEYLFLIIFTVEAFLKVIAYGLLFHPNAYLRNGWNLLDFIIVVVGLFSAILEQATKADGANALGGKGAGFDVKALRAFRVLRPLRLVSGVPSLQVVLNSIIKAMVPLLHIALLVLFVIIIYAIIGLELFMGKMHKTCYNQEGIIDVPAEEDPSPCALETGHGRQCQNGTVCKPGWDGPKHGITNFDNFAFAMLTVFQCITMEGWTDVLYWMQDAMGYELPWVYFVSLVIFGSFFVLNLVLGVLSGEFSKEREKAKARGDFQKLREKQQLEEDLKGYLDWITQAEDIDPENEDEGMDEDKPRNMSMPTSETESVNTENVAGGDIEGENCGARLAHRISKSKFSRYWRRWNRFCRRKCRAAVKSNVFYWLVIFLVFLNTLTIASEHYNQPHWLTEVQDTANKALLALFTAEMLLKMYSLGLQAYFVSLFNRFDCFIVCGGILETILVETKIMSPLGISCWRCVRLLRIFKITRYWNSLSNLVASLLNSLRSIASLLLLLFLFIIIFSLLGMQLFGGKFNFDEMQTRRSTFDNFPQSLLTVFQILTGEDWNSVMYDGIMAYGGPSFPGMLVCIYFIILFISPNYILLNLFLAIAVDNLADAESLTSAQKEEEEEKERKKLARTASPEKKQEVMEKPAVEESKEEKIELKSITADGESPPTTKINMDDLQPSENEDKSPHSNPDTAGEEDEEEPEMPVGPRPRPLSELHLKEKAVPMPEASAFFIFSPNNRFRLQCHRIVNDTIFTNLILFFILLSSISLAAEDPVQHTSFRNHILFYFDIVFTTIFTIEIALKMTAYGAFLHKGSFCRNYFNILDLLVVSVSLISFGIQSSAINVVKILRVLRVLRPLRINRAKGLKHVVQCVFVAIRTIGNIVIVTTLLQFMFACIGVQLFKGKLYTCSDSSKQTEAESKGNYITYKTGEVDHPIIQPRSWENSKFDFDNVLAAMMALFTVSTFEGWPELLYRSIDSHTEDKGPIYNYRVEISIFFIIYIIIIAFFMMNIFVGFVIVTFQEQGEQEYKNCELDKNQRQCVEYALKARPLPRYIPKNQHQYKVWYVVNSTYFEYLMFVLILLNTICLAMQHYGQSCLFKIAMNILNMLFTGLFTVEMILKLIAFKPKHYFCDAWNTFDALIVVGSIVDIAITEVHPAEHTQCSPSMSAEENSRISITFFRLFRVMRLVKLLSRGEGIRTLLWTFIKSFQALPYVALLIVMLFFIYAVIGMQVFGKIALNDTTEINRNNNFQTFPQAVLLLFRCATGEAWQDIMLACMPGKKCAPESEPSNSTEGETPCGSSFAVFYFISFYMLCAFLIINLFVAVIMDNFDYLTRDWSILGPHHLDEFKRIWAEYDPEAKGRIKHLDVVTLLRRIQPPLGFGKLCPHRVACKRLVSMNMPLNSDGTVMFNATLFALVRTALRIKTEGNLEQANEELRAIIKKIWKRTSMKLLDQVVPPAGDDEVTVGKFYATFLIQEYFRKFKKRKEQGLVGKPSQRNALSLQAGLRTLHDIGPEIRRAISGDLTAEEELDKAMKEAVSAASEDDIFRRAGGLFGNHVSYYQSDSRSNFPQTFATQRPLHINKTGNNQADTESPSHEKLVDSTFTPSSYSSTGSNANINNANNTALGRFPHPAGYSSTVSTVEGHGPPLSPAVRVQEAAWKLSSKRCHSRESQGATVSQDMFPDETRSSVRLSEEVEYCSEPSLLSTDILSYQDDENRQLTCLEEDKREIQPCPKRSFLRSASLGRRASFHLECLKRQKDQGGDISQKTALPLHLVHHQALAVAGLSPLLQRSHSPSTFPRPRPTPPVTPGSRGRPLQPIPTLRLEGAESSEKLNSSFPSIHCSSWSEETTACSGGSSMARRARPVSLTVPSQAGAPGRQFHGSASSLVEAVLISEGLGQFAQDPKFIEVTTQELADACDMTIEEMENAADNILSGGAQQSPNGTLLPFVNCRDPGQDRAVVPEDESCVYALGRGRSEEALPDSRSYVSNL
T2 sequence (P54290 25-944 partner limits assumed, other chains not shown): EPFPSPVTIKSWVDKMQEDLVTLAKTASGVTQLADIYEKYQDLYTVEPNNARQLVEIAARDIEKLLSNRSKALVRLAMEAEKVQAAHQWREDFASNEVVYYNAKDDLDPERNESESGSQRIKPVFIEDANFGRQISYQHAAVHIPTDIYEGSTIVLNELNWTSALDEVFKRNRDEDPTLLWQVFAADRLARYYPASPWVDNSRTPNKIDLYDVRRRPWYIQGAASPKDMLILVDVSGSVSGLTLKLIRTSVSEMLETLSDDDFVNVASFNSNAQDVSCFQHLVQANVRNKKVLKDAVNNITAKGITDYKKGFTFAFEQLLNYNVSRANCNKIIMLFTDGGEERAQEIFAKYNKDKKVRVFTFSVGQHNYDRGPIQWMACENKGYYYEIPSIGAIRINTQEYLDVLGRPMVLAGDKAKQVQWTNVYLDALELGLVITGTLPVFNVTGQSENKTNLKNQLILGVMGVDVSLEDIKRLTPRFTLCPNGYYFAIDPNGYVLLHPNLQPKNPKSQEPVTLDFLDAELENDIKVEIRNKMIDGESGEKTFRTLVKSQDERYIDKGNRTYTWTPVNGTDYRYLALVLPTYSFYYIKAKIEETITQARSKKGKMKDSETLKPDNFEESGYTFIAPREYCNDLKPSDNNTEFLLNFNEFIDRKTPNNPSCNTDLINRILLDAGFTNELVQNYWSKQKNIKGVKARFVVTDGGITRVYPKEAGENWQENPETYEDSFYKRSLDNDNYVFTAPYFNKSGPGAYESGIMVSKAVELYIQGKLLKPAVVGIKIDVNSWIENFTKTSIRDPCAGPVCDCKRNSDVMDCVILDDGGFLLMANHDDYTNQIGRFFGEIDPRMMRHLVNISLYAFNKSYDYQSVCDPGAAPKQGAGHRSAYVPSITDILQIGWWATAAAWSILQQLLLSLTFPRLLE
T2 sequence (P54290 945-1091 partner limits assumed, other chains not shown): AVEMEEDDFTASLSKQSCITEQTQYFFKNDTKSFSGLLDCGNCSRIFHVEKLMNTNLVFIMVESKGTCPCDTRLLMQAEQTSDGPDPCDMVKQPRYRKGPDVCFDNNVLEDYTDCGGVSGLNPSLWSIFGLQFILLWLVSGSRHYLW
The series can be described thus: verapamil binding study in rat heart membrane preparation. The settings on record: 0.25 nM [^3H]desmethoxyverapamil, read-out: verapamil binding study (Ca^2+ channel binding affinity, adverse effect). As for the experimental part:
The adverse effect on Ca^2+ channel binding affinity is determined by verapamil binding study in rat heart membrane preparation. More specifically, verapamil binding study is performed as previously described by Reynolds et al., (J. Pharmacol. Exp. Ther., 237, 731, (1986)). Briefly, incubations are initiated by the addition of tissue to tubes containing 0.25 nM [^3H]desmethoxyverapamil and various concentrations of compounds (total volume; 1 ml). Nonspecific binding is defined as radioligand binding remaining in the presence of 3-10 μM methoxyverapamil.
`COc1cc2c(cc1CN[C@H]1CCCN[C@H]1c1ccccc1)N(C)C(=O)CC2.Cl.Cl` [Compound 21, (2S,3S)-3-(6-Methoxy-1-methyl-2-oxo-1,2,3,4-tetrahydroquinolin-7-yl)methylamino-2-phenylpiperidine Dihydrochloride]: the pIC50 is less than 6.52.

For another series, the system named is gerbils. The series can be described thus: tapping test in gerbils. The conditions noted are these: % inhibition at 0.3 mg/kg scoring. The class given is in vivo, gerbil. As for the experimental part:
More specifically, gerbils are lightly anesthetized with ether and the skull surface is exposed. […] Following injection, gerbils are placed in 1 L beaker individually and monitored for repetitive hind paw tapping. Some compounds prepared in the following Examples were tested in accordance with these testing methods.
On to `COc1cc2c(cc1CN[C@H]1CCCN[C@H]1c1ccccc1)N(C)C(=O)CC2.Cl.Cl` [Compound 21, (2S,3S)-3-(6-Methoxy-1-methyl-2-oxo-1,2,3,4-tetrahydroquinolin-7-yl)methylamino-2-phenylpiperidine Dihydrochloride], for which the “[Sar^9, Met(O2)^11]substance P-induced tapping test, % inhibition” value worked out at 52%.

Tested on in a further series: not given
Test: not given
Details: not given
On to `COc1cc2c(cc1CN[C@H]1C3CCN(CC3)[C@H]1C(c1ccccc1)c1ccccc1)N(C)C(=O)CC2`, for which the melting point (in general, the temperature, or range, at which the solid turns liquid) is 136 to 139 °C. `COc1cc2ccc(=O)n(C)c2cc1CN[C@H]1C2CCN(CC2)[C@H]1C(c1ccccc1)c1ccccc1` came in with a melting point of 125 to 128 °C.

`COc1cc2ccc(=O)n(C)c2cc1CN[C@H]1CCCN[C@H]1c1ccccc1.Cl.Cl` registered a melting point of 260 to 263 °C. On the same count and under the same terms, for `COc1cc2c(cc1CN[C@H]1CCCN[C@H]1c1ccccc1)N(C(C)C)C(=O)CC2.Cl.Cl` the value was 257 to 260 °C. The same measure, in the same setting: under `CN1C(=O)CCc2cc(OC(F)F)c(CN[C@H]3CCCN[C@H]3c3ccccc3)cc21.Cl.Cl` stands 238 to 240 °C; under `COc1cc2c(cc1CN[C@H]1CCCN[C@H]1c1ccccc1)N(CC(F)(F)F)C(=O)CC2.Cl.Cl`, 243 to 245 °C; under `COc1cc2c(cc1CN[C@H]1CCCN[C@H]1c1ccccc1)N(C)C(=S)CC2.Cl.Cl`, 245 to 246 °C. For the compound `COc1cc2c(cc1CN[C@H]1CCCN[C@H]1c1ccccc1)N(C)C(=O)CCC2.Cl.Cl`, the melting point fell in the range of 236 to 238 °C.

The compound `COc1cc2c(cc1CN[C@H]1CCCN[C@H]1c1ccccc1)CCC(=O)N2C.Cl.Cl` registered a melting point of 243 to 244 °C. Same read-out and setting: under `COc1cc2c(cc1CN[C@H]1CCCN[C@H]1c1ccccc1)C(C(F)(F)F)CC(=O)N2C.Cl.Cl` (stereo partly drawn) stands 255 to 256 °C; under `COc1cc2c(cc1CN[C@H]1CCCN[C@H]1c1ccccc1)N(C)C(=O)OC2.Cl.Cl`, 235 to 237 °C; under `COc1cc2c(cc1CN[C@H]1CCCN[C@H]1c1ccccc1)N(C)C(=O)SC2.Cl.Cl`, 252 to 254 °C. Same read-out and setting: for `COc1cc2c(cc1CN[C@H]1CCCN[C@H]1c1ccccc1)C(C)(C)C(=S)N2C.Cl.Cl` the value was 234 to 236 °C; for `COc1cc2c(cc1CN[C@H]1CCCN[C@H]1c1ccccc1)CCC(=S)N2C.Cl.Cl`, 219 to 221 °C; for `COc1cc2c(cc1CN[C@H]1CCCN[C@H]1c1ccccc1)N(C)C(=O)CC2.Cl.Cl` [Compound 21, (2S,3S)-3-(6-Methoxy-1-methyl-2-oxo-1,2,3,4-tetrahydroquinolin-7-yl)methylamino-2-phenylpiperidine Dihydrochloride], 265 to 268 °C.

(Values after patent US20030105124A1, “Substituted benzolactam compounds” (priority 2000, published 2003).)
